Measurements as given in patent US20240092784A1, “CONDENSED HETEROCYCLIC COMPOUND” (NISSAN CHEMICAL CORPORATION, priority 2020, published 2024).
pIC50: −log10 of the molar value.

biological target: human SPR (Homo sapiens (Human), UniProt P35270); test: Evaluation Example 2: Measurement of human SPR inhibitory activity (seven concentrations, sepiapterin absorbance at 420 nm); type: biochemical; conditions: Evaluation Example 2, seven concentrations 0.14 nM to 100 nM, 240 minutes at room temperature, read-out: IC50
Sequence (P35270 whole entry): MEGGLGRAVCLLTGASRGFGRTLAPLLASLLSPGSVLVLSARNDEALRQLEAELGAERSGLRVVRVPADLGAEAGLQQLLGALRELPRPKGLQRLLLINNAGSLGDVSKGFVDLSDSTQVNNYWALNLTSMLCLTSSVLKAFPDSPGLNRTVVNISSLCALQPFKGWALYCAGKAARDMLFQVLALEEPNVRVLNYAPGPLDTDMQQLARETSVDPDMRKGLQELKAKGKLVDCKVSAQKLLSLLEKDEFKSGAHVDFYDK
Procedure, shortened: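 His-tagged full-length human SPR (1-261) was expressed in E. coli and the tag removed. Enzyme at 150 ng/mL in 100 mM Tris-HCl pH 7.5/0.01% BSA was mixed with compound (0.14–100 nM, seven points), 120 μM sepiapterin and 160 μM NADPH, both as added-solution concentrations. After 240 min at room temperature, remaining sepiapterin was read at 420 nm to give percent inhibition.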

| Structure (SMILES) | pIC50 |
| --- | --- |
| CC1(Cn2c(=O)c(C(=O)NC3CC3)c(O)n3ncc(/C=C/C(=O)N4CCOCC4)c23)CC1 [Synthesis Example 366, (E)-N-Cyclopropyl-7-hydroxy-4-((1-methylcyclopropyl)methyl)-3-(3-morpholino-3-oxoprop-1-en-1-yl)-5-oxo-4,5-dihydropyrazolo[1,5-a]pyrimidine-6-carboxamide] | 9.12 |
| CC1(Cn2c(=O)c(C(=O)NC3CC3)c(O)n3ncc(/C=C/C(=O)N4C5CCC4COC5)c23)CC1 [Synthesis Example 367, (E)-3-(3-(3-Oxa-8-azabicyclo[3.2.1]octan-8-yl)-3-oxoprop-1-en-1-yl)-N-cyclopropyl-7-hydroxy-4-((1-methylcyclopropyl)methyl)-5-oxo-4,5-dihydropyrazolo[1,5-a]pyrimidine-6-carboxamide] | 9.21 |
| CC1(Cn2c(=O)c(C(=O)NC3CC3)c(O)n3ncc(/C=C/C(=O)N4CC5CCC(C4)O5)c23)CC1 [Synthesis Example 368, (E)-3-(3-(8-Oxa-3-azabicyclo[3.2.1]octan-3-yl)-3-oxoprop-1-en-1-yl)-N-cyclopropyl-7-hydroxy-4-((1-methylcyclopropyl)methyl)-5-oxo-4,5-dihydropyrazolo[1,5-a]pyrimidine-6-carboxamide] | 9.21 |
| C[C@H]1COCCN1C(=O)/C=C/c1cnn2c(O)c(C(=O)NC3CC3)c(=O)n(CC3(C)CC3)c12 [Synthesis Example 369, (S,E)-N-Cyclopropyl-7-hydroxy-4-((1-methylcyclopropyl)methyl)-3-(3-(3-methylmorpholino)-3-oxoprop-1-en-1-yl)-5-oxo-4,5-dihydropyrazolo[1,5-a]pyrimidine-6-carboxamide] | 9.24 |
| C[C@@H]1COCCN1C(=O)/C=C/c1cnn2c(O)c(C(=O)NC3CC3)c(=O)n(CC3(C)CC3)c12 [Synthesis Example 370, (R,E)-N-Cyclopropyl-7-hydroxy-4-((1-methylcyclopropyl)methyl)-3-(3-(3-methylmorpholino)-3-oxoprop-1-en-1-yl)-5-oxo-4,5-dihydropyrazolo[1,5-a]pyrimidine-6-carboxamide] | 9.27 |
| COC[C@H]1COCCN1C(=O)/C=C/c1cnn2c(O)c(C(=O)NC3CC3)c(=O)n(CC3(C)CC3)c12 [Synthesis Example 371, (S,E)-N-Cyclopropyl-7-hydroxy-3-(3-(3-(methoxymethyl)morpholino)-3-oxoprop-1-en-1-yl)-4-((1-methylcyclopropyl)methyl)-5-oxo-4,5-dihydropyrazolo[1,5-a]pyrimidine-6-carboxamide] | 9.21 |
| COC[C@@H]1COCCN1C(=O)/C=C/c1cnn2c(O)c(C(=O)NC3CC3)c(=O)n(CC3(C)CC3)c12 [Synthesis Example 372, (R,E)-N-Cyclopropyl-7-hydroxy-3-(3-(3-(methoxymethyl)morpholino)-3-oxoprop-1-en-1-yl)-4-((1-methylcyclopropyl)methyl)-5-oxo-4,5-dihydropyrazolo[1,5-a]pyrimidine-6-carboxamide] | 9.26 |
| CC1(Cn2c(=O)c(C(=O)NC3CC3)c(O)n3ncc(/C=C/C(=O)N4C[C@H]5C[C@@H]4CO5)c23)CC1 [Synthesis Example 373] | 9.13 |
| CC1(Cn2c(=O)c(C(=O)NC3CC3)c(O)n3ncc(/C=C/C(=O)N4C[C@@H]5C[C@H]4CO5)c23)CC1 [Synthesis Example 374] | 9.19 |
| O=C(NC1CC1)c1c(O)n2ncc(/C=C/C(=O)N3C[C@@H]4C[C@H]3CO4)c2n(CC2(F)CC2)c1=O [Synthesis Example 375] | 9.19 |
| O=C(NC1CC1)c1c(O)n2ncc(/C=C/C(=O)N3C4CCC3COC4)c2n(CC2(F)CC2)c1=O [Synthesis Example 376, (E)-3-(3-(3-Oxa-8-azabicyclo[3.2.1]octan-8-yl)-3-oxoprop-1-en-1-yl)-N-cyclopropyl-4-((1-fluorocyclopropyl)methyl)-7-hydroxy-5-oxo-4,5-dihydropyrazolo[1,5-a]pyrimidine-6-carboxamide] | 9.14 |
| O=C(NC1CC1)c1c(O)n2ncc(/C=C/C(=O)N3C[C@H]4C[C@@H]3CO4)c2n(CC2(F)CC2)c1=O [Synthesis Example 377] | 9.11 |
| O=C(NC1CC1)c1c(O)n2ncc(/C=C/C(=O)N3CC4CCC(C3)O4)c2n(CC2(F)CC2)c1=O [Synthesis Example 378, (E)-3-(3-(8-Oxa-3-azabicyclo[3.2.1]octan-3-yl)-3-oxoprop-1-en-1-yl)-N-cyclopropyl-4-((1-fluorocyclopropyl)methyl)-7-hydroxy-5-oxo-4,5-dihydropyrazolo[1,5-a]pyrimidine-6-carboxamide] | 9.10 |
| C[C@H]1COCCN1C(=O)/C=C/c1cnn2c(O)c(C(=O)NC3CC3)c(=O)n(CC3(F)CC3)c12 [Synthesis Example 379, (S,E)-N-Cyclopropyl-4-((1-fluorocyclopropyl)methyl)-7-hydroxy-3-(3-(3-methylmorpholino)-3-oxoprop-1-en-1-yl)-5-oxo-4,5-dihydropyrazolo[1,5-a]pyrimidine-6-carboxamide] | 9.15 |
| C[C@@H]1COCCN1C(=O)/C=C/c1cnn2c(O)c(C(=O)NC3CC3)c(=O)n(CC3(F)CC3)c12 [Synthesis Example 380, (R,E)-N-Cyclopropyl-4-((1-fluorocyclopropyl)methyl)-7-hydroxy-3-(3-(3-methylmorpholino)-3-oxoprop-1-en-1-yl)-5-oxo-4,5-dihydropyrazolo[1,5-a]pyrimidine-6-carboxamide] | 9.12 |
| O=C(NC1CC1)c1c(O)n2ncc(/C=C/C(=O)N3CCOCC3)c2n(CC2CCC2)c1=O [Synthesis Example 381, (E)-4-(Cyclobutylmethyl)-N-cyclopropyl-7-hydroxy-3-(3-morpholino-3-oxoprop-1-en-1-yl)-5-oxo-4,5-dihydropyrazolo[1,5-a]pyrimidine-6-carboxamide] | 9.15 |
| COC[C@H]1COCCN1C(=O)/C=C/c1cnn2c(O)c(C(=O)NC3CC3)c(=O)n(CC3(F)CC3)c12 [Synthesis Example 382, (S,E)-N-cyclopropyl-4-((1-fluorocyclopropyl)methyl)-7-hydroxy-3-(3-(3-(methoxymethyl)morpholino)-3-oxoprop-1-en-1-yl)-5-oxo-4,5-dihydropyrazolo[1,5-a]pyrimidine-6-carboxamide] | 9.06 |
| COC[C@@H]1COCCN1C(=O)/C=C/c1cnn2c(O)c(C(=O)NC3CC3)c(=O)n(CC3(F)CC3)c12 [Synthesis Example 383, (R,E)-N-Cyclopropyl-4-((1-fluorocyclopropyl)methyl)-7-hydroxy-3-(3-(3-(methoxymethyl)morpholino)-3-oxoprop-1-en-1-yl)-5-oxo-4,5-dihydropyrazolo[1,5-a]pyrimidine-6-carboxamide] | 9.09 |
| CC1(Cn2c(=O)c(C(=O)NC3CC3)c(O)n3ncc(/C=C/C(=O)N4CCOCC4)c23)CCOCC1 [Synthesis Example 386, (E)-N-Cyclopropyl-7-hydroxy-4-((4-methyltetrahydro-2H-pyran-4-yl)methyl)-3-(3-morpholino-3-oxoprop-1-en-1-yl)-5-oxo-4,5-dihydropyrazolo[1,5-a]pyrimidine-6-carboxamide] | 9.22 |
| O=C(NC1CC1)c1c(O)n2ncc(/C=C/C(=O)N3CCOCC3)c2n(CC2CC2)c1=O [Synthesis Example 387, (E)-N-Cyclopropyl-4-(cyclopropylmethyl)-7-hydroxy-3-(3-morpholino-3-oxoprop-1-en-1-yl)-5-oxo-4,5-dihydropyrazolo[1,5-a]pyrimidine-6-carboxamide] | 9.07 |
| CC(C)(F)Cn1c(=O)c(C(=O)NC2CC2)c(O)n2ncc(/C=C/C(=O)N3CCOCC3)c12 [Synthesis Example 390, (E)-N-Cyclopropyl-4-(2-fluoro-2-methylpropyl)-7-hydroxy-3-(3-morpholino-3-oxoprop-1-en-1-yl)-5-oxo-4,5-dihydropyrazolo[1,5-a]pyrimidine-6-carboxamide] | 9.15 |
| CC(C)(C)Cn1c(=O)c(C(=O)NC2CC2)c(O)n2nc3ncccc3c12 [Synthesis Example 391, N-Cyclopropyl-4-hydroxy-1-neopentyl-2-oxo-1,2-dihydropyrido[2′,3′:3,4]pyrazolo[1,5-a]pyrimidine-3-carboxamide] | 9.04 |
| CC(C)(C)Cn1c(=O)c(C(=O)NC2CC2)c(O)n2nc3nccnc3c12 [Synthesis Example 392, N-Cyclopropyl-7-hydroxy-10-neopentyl-9-oxo-9,10-dihydropyrazino[2′,3′:3,4]pyrazolo[1,5-a]pyrimidine-8-carboxamide] | 8.82 |
| COc1ccc2c(n1)nn1c(O)c(C(=O)NC3CC3)c(=O)n(CC(C)(C)C)c21 [Synthesis Example 393, N-Cyclopropyl-4-hydroxy-8-methoxy-1-neopentyl-2-oxo-1,2-dihydropyrido[2′,3′:3,4]pyrazolo[1,5-a]pyrimidine-3-carboxamide] | 8.86 |
| CC(C)(C)Cn1c(=O)c(C(=O)NC2CC2)c(O)n2nc3[nH]c(=O)ccc3c12 [Synthesis Example 394, N-Cyclopropyl-4-hydroxy-1-neopentyl-2,8-dioxo-1,2,7,8-tetrahydropyrido[2′,3′:3,4]pyrazolo[1,5-a]pyrimidine-3-carboxamide] | 9.41 |
| CC(C)(C)Cn1c(=O)c(C(=O)NC2CC2)c(O)n2nc3[nH]ccc3c12 [Synthesis Example 395, N-Cyclopropyl-7-hydroxy-4-neopentyl-5-oxo-4,5-dihydro-1H-pyrrolo[2′,3′:3,4]pyrazolo[1,5-a]pyrimidine-6-carboxamide] | 9.05 |
| CC(C)(C)Cn1c(=O)c(C(=O)NC2CC2)c(O)n2nc3c(c12)CCN3 [Synthesis Example 396, N-Cyclopropyl-7-hydroxy-4-neopentyl-5-oxo-2,3,4,5-tetrahydro-1H-pyrrolo[2′,3′:3,4]pyrazolo[1,5-a]pyrimidine-6-carboxamide] | 8.87 |
| CC(C)(C)Cn1c(=O)c(C(=O)NC2CC2)c(O)n2nc3c(c12)CCN3C(N)=O [Synthesis Example 397, N6-Cyclopropyl-7-hydroxy-4-neopentyl-5-oxo-2,3,4,5-tetrahydro-1H-pyrrolo[2′,3′:3,4]pyrazolo[1,5-a]pyrimidine-1,6-dicarboxamide] | 8.76 |
